Values of other authors, collected in patent US11219662B2, “Methods for treating hypotension in a patient that has received an ACE inhibitor by administering angiotensin II” (La Jolla Pharma, LLC, priority 2016, dated 2022).

Conditions: no experiment described

Molecule: CC[C@H](C)[C@H](NC(=O)[C@H](Cc1ccc(O)cc1)NC(=O)[C@@H](N)C(C)C)C(=O)N[C@@H](Cc1cnc[nH]1)C(=O)N1CCC[C@H]1C(=O)N[C@@H](Cc1ccccc1)C(=O)O [Angiotensin IV, Val-Tyr-Ile-His-Pro-Phe]
- activity compared with angiotensin II (qualitative background statement): less activity than angiotensin II

Molecule: Arg-Val-Tyr-Ile-His-Pro-Phe (RVYIHPF; printed: Arg-Val-Tyr-Ile-His-Pro-Phe) [Angiotensin III]
- activity relative to the activity of angiotensin II (of the activity of angiotensin II, background statement): approximately 40%
